Tests used:
[1] = substrate dissolution in autoclaved Columbia agar medium; assay type: physicochemical; details: 30 milligrams with 4 grams of Columbia agar in 0.1 liter of distilled water, autoclaved at 116° C. for 20 minutes
Method: (§1) A gelled medium comprising L-seryl-9-(4-amino-phenyl)acridine (hereinafter referred to as L-Ser-4-APA) is prepared as follows: 30 milligrams of L-Ser-4-APA are added to 4 grams of Columbia agar, that are added to 0.1 liter of distilled water and then autoclaved. This reaction medium is autoclaved at 116° C. for 20 minutes.

[2] = tested on: Klebsiella pneumoniae (012); assay: L-serine-aminopeptidase activity on gelled medium, Example 7; assay type: cell-based; details: 0.3 g/l, 18 to 24 hours
Method: as §1
(§2) Microorganisms derived from the applicant's collection were seeded onto this medium using a suspension of 0.5 McFarland. The dishes were incubated at 37° C. for 24 hours. Samples of 10 μl of each suspension were cultured so as to produce colonies. The colonies formed were examined visually after incubation for 18 to 24 hours.
(§3) The color of these colonies was noted before and after the addition of a drop of acetic acid, hereinafter referred to as GAA (glacial acetic acid).

Escherichia coli (009) = assay: as above; assay type: cell-based; details: 0.3 g/l, 18 to 24 hours
Method: as §1, §2, §3

[3] = tested on: Yersinia enterocolitica (061); assay: as above; assay type: cell-based; details: 0.3 g/l, 18 to 24 hours
Method: as §1, §2, §3

Candida albicans (138) = assay: as above; assay type: cell-based; details: 0.3 g/l, 18 to 24 hours
Method: as §1, §2, §3

[4] = tested on: Enterococcus faecalis (117); assay: as above; assay type: cell-based; details: 0.3 g/l, 18 to 24 hours
Method: as §1, §2, §3

[5] = tested on: Staphylococcus aureus (008); assay: as above; assay type: cell-based; details: 0.3 g/l, 18 to 24 hours
Method: as §1, §2, §3

[6] = tested on: Listeria monocytogenes (NCTC 11994); assay: t-BOC-L-alanyl-L-alanyl-L-alanyl-peptidase activity on gelled medium, Example 11; assay type: cell-based; set-up: key to growth: ++ means good growth; + means moderate growth; +/− means poor growth; NG means no growth
Method: (§4) A gelled medium comprising this substrate is prepared as follows: 30 mg of the substrate are dissolved (heating) in 10 ml of sterile distilled water. Ten ml of this solution are then added to 90 ml of Columbia agar, kept molten at 50° C.
(§5) Various strains of microorganisms derived from the NCTC collection (National Collection of Type Cultures, Colindale, UK) were seeded onto the media thus obtained according to the multipoint inoculation described in example 8 above.
(§6) The colonies formed were examined visually after incubation for 24 h and 48 h. The color and the growth of these colonies were noted.

[7] = tested on: Salmonella poona (NCTC 4840); assay: as above; assay type: cell-based; set-up: key to growth: ++ means good growth; + means moderate growth; +/− means poor growth; NG means no growth
Method: as §4, §5, §6

[8] = tested on: Burkholderia cepacia (NCTC 10743); assay: as above; assay type: cell-based; set-up: key to growth: ++ means good growth; + means moderate growth; +/− means poor growth; NG means no growth
Method: as §4, §5, §6

[9] = tested on: Escherichia coli O157 (NCTC 12079); assay: as above; assay type: cell-based; set-up: key to growth: ++ means good growth; + means moderate growth; +/− means poor growth; NG means no growth
Method: as §4, §5, §6

[10] = tested on: Enterococcus faecalis (NCTC 12697); assay: as above; assay type: cell-based; set-up: key to growth: ++ means good growth; + means moderate growth; +/− means poor growth; NG means no growth
Method: as §4, §5, §6

[11] = tested on: Enterobacter cloacae (NCTC 11936); assay: as above; assay type: cell-based; set-up: key to growth: ++ means good growth; + means moderate growth; +/− means poor growth; NG means no growth
Method: as §4, §5, §6

[12] = tested on: Enterococcus faecium (NCTC 7171); assay: as above; assay type: cell-based; set-up: key to growth: ++ means good growth; + means moderate growth; +/− means poor growth; NG means no growth
Method: as §4, §5, §6

[13] = tested on: Pseudomonas aeruginosa (NCTC 10662); assay: as above; assay type: cell-based; set-up: key to growth: ++ means good growth; + means moderate growth; +/− means poor growth; NG means no growth
Method: as §4, §5, §6

[14] = tested on: Staphylococcus aureus (NCTC 11939); assay: as above; assay type: cell-based; set-up: key to growth: ++ means good growth; + means moderate growth; +/− means poor growth; NG means no growth
Method: as §4, §5, §6

[15] = tested on: Salmonella typhimurium (NCTC 74); assay: as above; assay type: cell-based; set-up: key to growth: ++ means good growth; + means moderate growth; +/− means poor growth; NG means no growth
Method: as §4, §5, §6

[16] = tested on: Serratia marcescens (NCTC 10211); assay: as above; assay type: cell-based; set-up: key to growth: ++ means good growth; + means moderate growth; +/− means poor growth; NG means no growth
Method: as §4, §5, §6

[17] = tested on: Shigella sonnei (NCTC 9774); assay: as above; assay type: cell-based; set-up: key to growth: ++ means good growth; + means moderate growth; +/− means poor growth; NG means no growth
Method: as §4, §5, §6

[18] = tested on: Klebsiella pneumonia (NCTC 10896); assay: as above; assay type: cell-based; set-up: key to growth: ++ means good growth; + means moderate growth; +/− means poor growth; NG means no growth
Method: as §4, §5, §6

[19] = tested on: Staphylococcus aureus (NCTC 6571); assay: as above; assay type: cell-based; set-up: key: ++ means good growth; + means moderate growth; +/− means poor growth; NG means no growth
Method: as §4, §5, §6

[20] = tested on: Enterococcus faecalis (NCTC 755); assay: as above; assay type: cell-based; set-up: key: ++ means good growth; + means moderate growth; +/− means poor growth; NG means no growth
Method: as §4, §5, §6

Compound: N[C@@H](CO)C(=O)Nc1ccc(-c2c3ccccc3nc3ccccc23)cc1 [L-Ser-4-APA, L-Seryl-9-(4-aminophenyl)acridine]
- substrate in solution in the medium [1]: Most of the substrate is in solution
- Color ([2]; after GAA): pale orange
- Intensity ([2]; after GAA): 2
- Color ([2]; before GAA): cream
- Color (Escherichia coli (009); after GAA): pale orange
- Intensity (Escherichia coli (009); after GAA): 2
- Color (Escherichia coli (009); before GAA): cream
- Color ([3]; after GAA): pale orange
- Intensity ([3]; after GAA): 2
- Color ([3]; before GAA): cream
- Color (Candida albicans (138); after GAA): cream
- Color (Candida albicans (138); before GAA): cream
- Color ([4]; after GAA): cream
- Color ([4]; before GAA): cream
- Color ([5]; after GAA): cream
- Color ([5]; before GAA): cream

Compound: C[C@H](NC(=O)OC(C)(C)C)C(=O)N[C@@H](C)C(=O)N[C@@H](C)C(=O)Nc1ccc(-c2c3ccccc3[n+](C)c3ccccc23)cc1.[Cl-] [t-BOC-L-Ala-Ala-Ala-4-AP-10-MA, t-BOC-L-alanyl-L-alanyl-L-alanyl-9-(4-aminophenyl)-10-methylacridine]
- color of colonies ([6]; 24 h): Colorless
- growth ([6]; 24 h): +/−
- color of colonies ([6]; 48 h): Colorless
- growth ([6]; 48 h): +
- color of colonies ([7]; 24 h): Pale orange
- growth ([7]; 24 h): (++)
- color of colonies ([7]; 48 h): Pale orange
- growth ([7]; 48 h): ++
- color of colonies ([8]; 24 h): Orange
- growth ([8]; 24 h): ++
- color of colonies ([8]; 48 h): Orange
- growth ([8]; 48 h): ++
- color of colonies ([9]; 24 h): Pale orange
- growth ([9]; 24 h): (++)
- color of colonies ([9]; 48 h): Pale orange
- growth ([9]; 48 h): ++
- color of colonies ([10]; 24 h): Colorless
- growth ([10]; 24 h): +/−
- color of colonies ([10]; 48 h): Colorless
- growth ([10]; 48 h): +/−
- color of colonies ([11]; 24 h): Orange
- growth ([11]; 24 h): ++
- color of colonies ([11]; 48 h): Orange
- growth ([11]; 48 h): ++
- color of colonies ([12]; 24 h): Colorless
- growth ([12]; 24 h): +/−
- color of colonies ([12]; 48 h): Colorless
- growth ([12]; 48 h): ++
- color of colonies ([13]; 24 h): Pale orange
- growth ([13]; 24 h): (++)
- color of colonies ([13]; 48 h): Pale Orange
- growth ([13]; 48 h): ++
- color of colonies ([14]; 24 h): Colorless
- growth ([14]; 24 h): +
- color of colonies ([14]; 48 h): Colorless
- growth ([14]; 48 h): +
- color of colonies ([15]; 24 h): Pale orange
- growth ([15]; 24 h): (++)
- color of colonies ([15]; 48 h): Pale orange
- growth ([15]; 48 h): ++
- color of colonies ([16]; 24 h): Orange
- growth ([16]; 24 h): ++
- color of colonies ([16]; 48 h): Orange
- growth ([16]; 48 h): ++
- color of colonies ([17]; 24 h): Pale orange
- growth ([17]; 24 h): (++)
- color of colonies ([17]; 48 h): Pale orange
- growth ([17]; 48 h): ++
- color of colonies ([18]; 24 h): Orange
- growth ([18]; 24 h): ++
- color of colonies ([18]; 48 h): Orange
- growth ([18]; 48 h): ++
- growth ([19]; 24 h): NG
- growth ([19]; 48 h): NG
- growth ([20]; 24 h): NG
- growth ([20]; 48 h): NG

Source: US7223865B2, “Chromogenic compounds, and use thereof as enzyme substrates” (Biomerieux, priority 2003, dated 2007)
